± gives the standard deviation of the averaged measurements.
How the values were obtained:
[1] = test system: Homo sapiens (human subject panel, olfactory perception); experiment: perceived odor familiarity rating (rating 0-100); higher = more familiar
Method: (§1)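 Human olfactory psychophysics. 55 healthy subjects (after excluding 6 low performers) sniffed 1 mL of each odorant diluted in paraffin oil (vials, two dilutions per molecule, 20 molecules presented twice). Each subject rated intensity, pleasantness and familiarity on a 0-100 slider, starting at 50 and required to move. Ratings were given only when the subject reported detecting a smell; per-subject ratings are averaged over subjects.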

[2] = test system: Homo sapiens (human subject panel, olfactory perception); experiment: perceived odor pleasantness rating (rating 0-100); higher = more pleasant
Method: as §1

[3] = test system: Homo sapiens (human subject panel, olfactory perception); experiment: perceived odor intensity rating (rating 0-100); higher = stronger perceived smell
Method: as §1

[4] = odor dilution in paraffin oil: 1/1,000
[5] = odor dilution in paraffin oil: 1/100,000
[6] = odor dilution in paraffin oil: 1/10,000,000
[7] = odor dilution in paraffin oil: 1/10

Row | Compound | perceived odor familiarity rating [1, 4] | perceived odor familiarity rating [1, 5] | perceived odor pleasantness rating [2, 4] | perceived odor pleasantness rating [2, 5] | perceived odor intensity rating [3, 4] | perceived odor intensity rating [3, 5] | perceived odor familiarity rating [1, 6] | perceived odor pleasantness rating [2, 6] | perceived odor intensity rating [3, 6] | perceived odor familiarity rating [1, 7] | perceived odor pleasantness rating [2, 7] | perceived odor intensity rating [3, 7]
1 | CC(C)CCCC(C)CCO (stereo unspecified) [3,7-Dimethyl-1-octanol] | 57.6 ± 30 | 40.5 ± 26 | 40.2 ± 28 | 43.8 ± 19 | 74.7 ± 22 | 24.2 ± 26 |  |  |  |  |  | 
2 | CC(C)=CCCC(C)=CC#N [3,7-Dimethyl-2,6-octadienenitrile] | 67.1 ± 29 | 48.4 ± 34 | 64.5 ± 28 | 60.3 ± 23 | 75.1 ± 22 | 46.2 ± 28 |  |  |  |  |  | 
3 | Cc1ccc(C(C)CC=O)o1 (stereo unspecified) [3-(5-Methyl-2-furyl)butanal] | 41.5 ± 32 | 36 ± 31 | 27.9 ± 24 | 41.6 ± 25 | 74.3 ± 22 | 30.8 ± 30 |  |  |  |  |  | 
4 | CSCCC=O [3-(Methylthio)propionaldehyde] |  | 53.5 ± 33 |  | 23.9 ± 28 |  | 79.6 ± 23 | 49.9 ± 33 | 30.7 ± 26 | 70.3 ± 25 |  |  | 
5 | CSCCCN=C=S [3-(Methylthio)propyl isothiocyanate] | 49.7 ± 32 | 47.6 ± 30 | 25.2 ± 26 | 34.3 ± 27 | 82.7 ± 21 | 62.5 ± 29 |  |  |  |  |  | 
6 | CSCCCO [3-(methylthio)-1-propanol] |  | 53.7 ± 31 |  | 22.9 ± 26 |  | 82.2 ± 17 | 43.2 ± 31 | 24.8 ± 22 | 66.3 ± 26 |  |  | 
7 | CC(=O)c1cc(C)oc1C [3-Acetyl-2,5-dimethylfuran] |  | 44.9 ± 27 |  | 31.6 ± 22 |  | 65.6 ± 24 | 40.2 ± 32 | 48.9 ± 22 | 15.4 ± 22 |  |  | 
8 | CC(=O)c1cc(C)sc1C [3-Acetyl-2,5-dimethylthiophene] | 47.4 ± 29 | 35.4 ± 30 | 27.7 ± 26 | 49.4 ± 29 | 78.9 ± 20 | 19.4 ± 20 |  |  |  |  |  | 
9 | CC(=O)c1cccnc1 [3-Acetylpyridine] | 48.2 ± 33 | 30 ± 31 | 32.3 ± 29 | 44.8 ± 29 | 76.2 ± 23 | 24.6 ± 30 |  |  |  |  |  | 
10 | CCCCCC/C=C/C(C)=O [3-Decen-2-one] | 42.5 ± 28 | 27.1 ± 21 | 33.9 ± 22 | 46.8 ± 18 | 65.4 ± 25 | 21.6 ± 23 |  |  |  |  |  | 
11 | CC(C)CCS [3-Methyl-1-butanethiol] |  | 54.6 ± 34 |  | 13.3 ± 18 |  | 88.3 ± 14 | 46.5 ± 29 | 32 ± 26 | 54.1 ± 30 |  |  | 
12 | CC1CCCC(=O)C1 (stereo unspecified) [3-Methylcyclohexanone] | 53.2 ± 34 | 34 ± 27 | 45.5 ± 30 | 41.7 ± 22 | 71 ± 28 | 39.3 ± 34 |  |  |  |  |  | 
13 | CCCCCC(O)CC (stereo unspecified) [3-Octanol] | 45.5 ± 29 | 35.9 ± 28 | 38.2 ± 25 | 49.5 ± 18 | 72 ± 23 | 26.9 ± 25 |  |  |  |  |  | 
14 | CCCCCC(CC)OC(C)=O (stereo unspecified) [3-Octyl Acetate] | 48.9 ± 29 |  | 59 ± 26 |  | 39.7 ± 31 |  |  |  |  | 51.6 ± 32 | 44.9 ± 31 | 83.7 ± 17
15 | CCC(=O)CC [3-Pentanone] | 53.3 ± 32 | 39.5 ± 29 | 41.1 ± 26 | 45.4 ± 24 | 57.4 ± 35 | 33.3 ± 32 |  |  |  |  |  | 
16 | OCCCc1ccccc1 [3-Phenyl-1-propanol] | 49.5 ± 34 | 36.7 ± 27 | 48.6 ± 33 | 45.4 ± 25 | 63.3 ± 30 | 34.5 ± 32 |  |  |  |  |  | 
17 | CCC(=O)OCCCc1ccccc1 [3-Phenylpropyl propionate] | 49.1 ± 28 | 38.6 ± 32 | 36.4 ± 28 | 49.8 ± 27 | 62.9 ± 26 | 28.4 ± 34 |  |  |  |  |  | 
18 | CCCC(O)CC (stereo unspecified) [3-hexanol (replicate)] | 50.5 ± 34 | 34.2 ± 26 | 32.3 ± 22 | 46.6 ± 22 | 68.9 ± 28 | 30.2 ± 30 |  |  |  |  |  | 

Row | Compound | perceived odor familiarity rating [1, 4] | perceived odor familiarity rating [1, 5] | perceived odor pleasantness rating [2, 4] | perceived odor pleasantness rating [2, 5] | perceived odor intensity rating [3, 4] | perceived odor intensity rating [3, 5] | perceived odor familiarity rating [1, 6] | perceived odor pleasantness rating [2, 6] | perceived odor intensity rating [3, 6] | perceived odor familiarity rating [1, 7] | perceived odor pleasantness rating [2, 7] | perceived odor intensity rating [3, 7]
19 | CCCC(O)CC (stereo unspecified) [3-hexanol] | 43.1 ± 31 | 28.1 ± 23 | 35.1 ± 26 | 49.1 ± 24 | 71.3 ± 28 | 29.7 ± 30 |  |  |  |  |  | 
20 | CCCCCC(=O)CC [3-octanone] | 56.4 ± 28 | 35.9 ± 30 | 50.9 ± 31 | 53.3 ± 23 | 69.7 ± 25 | 26 ± 27 |  |  |  |  |  | 
21 | CCC(O)CC [3-pentanol] | 58.3 ± 32 | 44 ± 33 | 34 ± 26 | 33.4 ± 25 | 76.4 ± 18 | 39.4 ± 35 |  |  |  |  |  | 
22 | O=C1CCSC1 [4,5-Dihydro-3(2H)-thiophenone] | 52.9 ± 34 | 30.8 ± 34 | 21.4 ± 26 | 33.2 ± 22 | 85.8 ± 20 | 37 ± 34 |  |  |  |  |  | 
23 | CC1=C(O)C(=O)OC1C (stereo unspecified) [4,5-Dimethyl-3-hydroxy-2,5-dihydrofuran-2-one] |  | 64.4 ± 25 |  | 59.5 ± 29 |  | 72.6 ± 21 | 42.7 ± 32 | 46.1 ± 26 | 41.8 ± 30 |  |  | 
24 | CC(=O)CCc1ccc(O)cc1 [4-(4-Hydroxyphenyl)-2-butanone] | 46.1 ± 28 |  | 50.6 ± 24 |  | 46.3 ± 30 |  |  |  |  | 40.1 ± 29 | 49.6 ± 27 | 50.2 ± 29
25 | C=CCc1ccc(OC)cc1 [4-Allylanisole] | 64.2 ± 28 | 28.7 ± 27 | 60.8 ± 24 | 54.5 ± 24 | 60.8 ± 26 | 22.3 ± 29 |  |  |  |  |  | 
26 | CCOc1ccc(C=O)cc1 [4-Ethoxybenzaldehyde] | 58.5 ± 30 | 47.2 ± 31 | 67.4 ± 26 | 66.4 ± 24 | 65.2 ± 25 | 34.2 ± 28 |  |  |  |  |  | 
27 | CCc1ccc(O)c(OC)c1 [4-Ethylguaiacol] | 57.6 ± 32 | 52.1 ± 32 | 41.7 ± 27 | 43.8 ± 24 | 78 ± 17 | 69.4 ± 23 |  |  |  |  |  | 
28 | CCCC(=O)CCC [4-Heptanone] | 55.4 ± 27 | 41.1 ± 29 | 49.3 ± 23 | 51.6 ± 24 | 69.3 ± 24 | 34.7 ± 31 |  |  |  |  |  | 
29 | O=Cc1ccc(O)cc1 [4-Hydroxybenzaldehyde] | 39.1 ± 31 |  | 51.8 ± 23 |  | 37.6 ± 27 |  |  |  |  | 39.5 ± 25 | 49.2 ± 24 | 51.6 ± 29
30 | O=C1CCCO1 [4-Hydroxybutanoic acid lactone] | 44.6 ± 31 | 28.2 ± 30 | 28.9 ± 19 | 46.1 ± 25 | 47 ± 34 | 19.9 ± 24 |  |  |  |  |  | 
31 | CC(C)c1ccc(CO)cc1 [4-Isopropylbenzyl alcohol] | 33.1 ± 29 |  | 40.4 ± 25 |  | 31.9 ± 32 |  |  |  |  | 46.4 ± 31 | 31.8 ± 23 | 71.6 ± 22
32 | CC(=O)OCCc1scnc1C [4-Methyl-5-thiazoleethanol acetate] | 53.8 ± 31 | 45.9 ± 32 | 34.4 ± 25 | 41.9 ± 24 | 66.3 ± 26 | 38 ± 30 |  |  |  |  |  | 
33 | Cc1ncsc1CCO [4-Methyl-5-thiazoleethanol] | 56.7 ± 32 | 39.9 ± 28 | 29.6 ± 25 | 37.8 ± 24 | 73.1 ± 20 | 48.6 ± 29 |  |  |  |  |  | 
34 | C=Cc1scnc1C [4-Methyl-5-vinylthiazole] | 41.4 ± 34 | 40.3 ± 33 | 21.3 ± 22 | 38.6 ± 27 | 80.5 ± 21 | 43.5 ± 32 |  |  |  |  |  | 
35 | COc1ccc(C)cc1 [4-Methylanisole] | 48.2 ± 31 | 50.2 ± 28 | 47.7 ± 28 | 56.3 ± 28 | 70.5 ± 21 | 44.8 ± 31 |  |  |  |  |  | 
36 | CC1CCC(=O)CC1 [4-Methylcyclohexanone] | 46 ± 32 | 49.2 ± 28 | 36.9 ± 25 | 64.6 ± 20 | 60.9 ± 31 | 32.5 ± 28 |  |  |  |  |  | 

Reference: the supplement of paper PMC4977894
